pEC50, pIC50: −log10 of the molar value. In brackets after ≈: the same amount, converted by molar mass. Activity calls are given as the source filed them. No cut-off for these calls is given here.

Data set [1] addresses T1, UDP-glucuronosyltransferase 2B17 (Homo sapiens, UniProt O75795).
T1 sequence (O75795 whole entry): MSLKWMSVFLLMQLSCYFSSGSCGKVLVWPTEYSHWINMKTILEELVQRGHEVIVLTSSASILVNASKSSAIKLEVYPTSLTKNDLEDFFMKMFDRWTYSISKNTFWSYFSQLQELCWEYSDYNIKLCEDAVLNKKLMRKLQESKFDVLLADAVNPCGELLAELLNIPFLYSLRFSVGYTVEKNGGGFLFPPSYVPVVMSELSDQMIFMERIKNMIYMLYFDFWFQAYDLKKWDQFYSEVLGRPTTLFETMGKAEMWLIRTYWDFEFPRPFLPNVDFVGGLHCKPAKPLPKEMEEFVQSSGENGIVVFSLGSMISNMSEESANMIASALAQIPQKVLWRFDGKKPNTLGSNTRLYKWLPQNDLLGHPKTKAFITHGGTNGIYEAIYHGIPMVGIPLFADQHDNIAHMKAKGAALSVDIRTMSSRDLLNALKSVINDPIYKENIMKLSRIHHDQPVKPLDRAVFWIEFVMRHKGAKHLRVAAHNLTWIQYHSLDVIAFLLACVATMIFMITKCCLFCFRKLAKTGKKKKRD
Briefly: Substrate activity at recombinant human UGT2B17 expressed in baculovirus infected insect cell membranes assessed as enzyme-mediated glucuronidation by measuring Vmax per mg protein at 50 uM preincubated for 5 mins followed by UDPGA addition and measured after 60 mins by LC-MS/MS analysis. The format is ADME. As to conditions: 1 h.

For data set [2], the target named is T2, UGT2B17 (Homo sapiens, UniProt O75795).
T2 sequence (O75795 whole entry): T1 sequence (O75795 whole entry)
Briefly: Substrate activity at recombinant human UGT2B17 expressed in baculovirus infected insect cell membranes assessed as enzyme-mediated glucuronidation by measuring Km at 50 uM preincubated for 5 mins followed by UDPGA addition and measured after 60 mins by LC-MS/MS analysis. The format is ADME.

Data set [3] addresses T1, UDP-glucuronosyltransferase 2B17. Briefly: Substrate activity at UGT2B17 in human intestinal microsomes assessed as enzyme-mediated glucuronidation by measuring Vmax per mg protein at 2 to 1000 uM preincubated for 5 mins followed by UDPGA addition and measured after 60 mins by LC-MS/MS analysis. The format is ADME, Intestine. As to conditions: 1 h.
Data set [4] concerns the target T2, UGT2B17. Nature of the data set: Substrate activity at UGT2B17 in human intestinal microsomes assessed as enzyme-mediated glucuronidation by measuring Km at 2 to 1000 uM preincubated for 5 mins followed by UDPGA addition and measured after 60 mins by LC-MS/MS analysis. The format is ADME, Intestine.
Data set [5] can be described thus: Drug metabolism in human hepatocytes assessed as PT2639 formation by HPLC-UV analysis. The format is ADME, cell-based, Hepatocyte.
Data set [6] can be described thus: Protein binding in human plasma at 10 uM measured after 4 hrs by LC-MS/MS analysis. As to conditions: read-out: PPB (converted). The format is ADME, cell-free.
The nature of data set [7]: Lipophilicity, log D of the compound at pH 7.4. Format: physicochemical. As to conditions: buffer.
Data set [8] can be described thus: Drug metabolism in po dosed dog urine assessed as PT2639 formation. Format: ADME, organism-based, Canis lupus familiaris. As to conditions: in vivo.
The nature of data set [9]: Thermodynamic aqueous solubility of the compound at pH 7.4. The format is physicochemical. As to conditions: buffer, read-out: Therm_solubility.
Data set [10] concerns the target UDP-glucuronosyltransferase 1A3 (Homo sapiens, UniProt P35503). Nature of the data set: Substrate activity at recombinant human UGT1A3 expressed in baculovirus infected insect cell membranes assessed as enzyme-mediated glucuronidation by measuring PT2639 formation at 50 uM preincubated for 5 mins followed by UDPGA addition and measured after 60 mins by LC-MS/MS analysis. As to conditions: 1 h. The format is ADME.

Data set [11] concerns the target UDP-glucuronosyltransferase 1A7 (Homo sapiens, UniProt Q9HAW7). Briefly: Substrate activity at recombinant human UGT1A7 expressed in baculovirus infected insect cell membranes assessed as enzyme-mediated glucuronidation by measuring PT2639 formation at 50 uM preincubated for 5 mins followed by UDPGA addition and measured after 60 mins by LC-MS/MS analysis. Format: ADME. As to conditions: 1 h.

The nature of data set [12]: Protein binding in mouse plasma at 10 uM measured after 4 hrs by LC-MS/MS analysis. Format: ADME, cell-free. As to conditions: read-out: PPB (converted).
Data set [13] can be described thus: Dose normalized AUClast in CD-1 mouse at 10 mg/kg, po administered via gavage by UPLC-MS analysis. Format: ADME, organism-based. As to conditions: in vivo.
A short description of data set [14]: Dose normalized AUClast in Sprague-Dawley rat at 10 mg/kg, po administered via gavage by UPLC-MS analysis. Format: ADME, organism-based. As to conditions: in vivo.
Data set [15] in a line: Dose normalized AUClast in Beagle dog at 5 mg/kg, po administered via gavage by UPLC-MS analysis. Format: ADME, organism-based, Canis lupus familiaris. As to conditions: in vivo.
A short description of data set [16]: Dose normalized AUClast in monkey at 10 mg/kg, po administered via gavage by UPLC-MS analysis. The format is ADME, organism-based, Macaca mulatta. As to conditions: rhesus monkey, in vivo.
The subject of data set [17] is Mus musculus. Nature of the data set: In vivo inhibition of HIF-2alpha in SCID Beige mouse xenografted with human 786-O cells assessed as reduction in cyclin D1 mRNA expression at 10 mg/kg, po administered twice daily via gavage for 3 days measured 12 hrs post-last dose by qRT-PCR analysis. Format: functional, organism-based. Background: In xenograft studies the graft and the host belong to different species.

A short description of data set [18]: Drug level in plasma of SCID Beige mouse xenografted with human 786-O cells at 10 mg/kg, po administered twice daily via gavage for 3 days measured 12 hrs post-last dose. Format: ADME, organism-based.
Data set [19] deals with 786-0. Nature of the data set: Antitumor activity against human 786-O cells xenografted in SCID Beige mouse assessed as tumor regression at 10 mg/kg, po administered twice daily via gavage for 3 days measured 12 hrs post-last. The format is functional, organism-based.
The subject of data set [20] is Homo sapiens. Nature of the data set: In vivo inhibition of HIF-2alpha in patient with advanced solid tumor assessed as reduction in EPO expression at >500 ng/ml, po administered once daily. Format: organism-based.
Data set [21] can be described thus: Cmin in patient with advanced solid tumor at 800 mg, po administered twice daily measured on day 15 measured after 12 hrs. As to conditions: human, in vivo.
Data set [22] deals with T3, Endothelial PAS domain-containing protein 1 (Homo sapiens, UniProt Q99814). Briefly: Inhibition of N-(3-Chlorophenyl-4,6-t2)-4-nitrobenzo[c][1,2,5]oxadiazol-5-amine binding to his-tagged HIF-2alpha PAS-B domain (unknown origin) measured after 1 hr by scintillation proximity assay.
Data set [23] addresses T3, Endothelial PAS domain-containing protein 1.
Description: Inhibition of HIF-2alpha (unknown origin) expressed in human 786-O cells measured after 24 hrs by one-glo luciferase reporter gene assay
Data set [24] can be described thus: Drug metabolism in iv or po dosed dog assessed as PT2385 formation. The format is ADME, organism-based, Canis lupus familiaris. As to conditions: in vivo.
Data set [25] is described as follows: Drug level in human hepatocytes treated with PT2385 assessed as metabolite formation by HPLC-UV analysis. The format is ADME, cell-based, Hepatocyte.
For data set [26], the target named is BCRP (ABCG2) (Homo sapiens, UniProt Q9UNQ0). Briefly: Substrate activity at BCRP (unknown origin) expressed in MDCK2 cells assessed as efflux ratio of permeability at up to 300 uM. The format is ADME, cell-based.
For data set [27], the target named is P-gp (ABCB1) (Homo sapiens, UniProt P08183). Nature of the data set: Substrate activity at P-gp (unknown origin) expressed in MDCK2 cells assessed as efflux ratio of permeability at up to 300 uM. Format: ADME, cell-based. As to conditions: MDCK-MDR1.
Data set [28] addresses T4, ATP-binding cassette sub-family C member 2 (Homo sapiens, UniProt Q92887). Briefly: Ratio of compound effect for substrate activity at human MRP2 expressed in Sf9 membrane vesicles assessed as protein-mediated drug uptake in presence of ATP to compound effect for substrate activity at human MRP2 expressed in Sf9 membrane vesicles assessed as protein-mediated drug uptake in absence of ATP. Format: ADME, cell membranes.

The target in data set [29] is T4, ATP-binding cassette sub-family C member 2. Nature of the data set: Substrate activity at human MRP2 expressed in Sf9 membrane vesicles assessed as Vmax per mg protein. Format: ADME.
For data set [30], the target named is MRP2 (ABCC2) (Homo sapiens, UniProt Q92887). Briefly: Substrate activity at human MRP2 expressed in Sf9 membrane vesicles assessed as Km. The format is ADME. As to conditions: Sf9 membrane vesicles expressing human MRP2.
For data set [31], the target named is Beta-glucuronidase (Escherichia coli (strain K12), UniProt P05804). Nature of the data set: Drug metabolism assessed as Escherichia coli beta-glucuronidase-mediated PT2385 formation after 30 mins by LC-MS/MS analysis. As to conditions: isolated protein, 0.5 h. Format: ADME.
Chain of Beta-glucuronidase (P05804 whole entry): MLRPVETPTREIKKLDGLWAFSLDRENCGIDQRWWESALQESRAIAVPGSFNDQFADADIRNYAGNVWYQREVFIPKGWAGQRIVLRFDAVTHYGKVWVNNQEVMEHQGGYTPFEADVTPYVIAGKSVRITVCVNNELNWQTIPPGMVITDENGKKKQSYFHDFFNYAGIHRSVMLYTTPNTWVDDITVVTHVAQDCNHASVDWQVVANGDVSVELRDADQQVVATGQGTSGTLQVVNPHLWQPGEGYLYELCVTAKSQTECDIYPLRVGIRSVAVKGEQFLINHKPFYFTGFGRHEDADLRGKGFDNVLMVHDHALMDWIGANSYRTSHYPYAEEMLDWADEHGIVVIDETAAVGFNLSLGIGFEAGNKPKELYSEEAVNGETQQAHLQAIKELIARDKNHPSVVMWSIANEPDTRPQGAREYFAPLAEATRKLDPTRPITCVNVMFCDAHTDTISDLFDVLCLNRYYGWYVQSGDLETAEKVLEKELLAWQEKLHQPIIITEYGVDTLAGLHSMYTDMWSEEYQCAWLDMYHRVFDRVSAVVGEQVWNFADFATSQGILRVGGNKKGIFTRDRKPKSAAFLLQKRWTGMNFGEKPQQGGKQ

T3 sequence (Q99814 whole entry, the tested form may be a part): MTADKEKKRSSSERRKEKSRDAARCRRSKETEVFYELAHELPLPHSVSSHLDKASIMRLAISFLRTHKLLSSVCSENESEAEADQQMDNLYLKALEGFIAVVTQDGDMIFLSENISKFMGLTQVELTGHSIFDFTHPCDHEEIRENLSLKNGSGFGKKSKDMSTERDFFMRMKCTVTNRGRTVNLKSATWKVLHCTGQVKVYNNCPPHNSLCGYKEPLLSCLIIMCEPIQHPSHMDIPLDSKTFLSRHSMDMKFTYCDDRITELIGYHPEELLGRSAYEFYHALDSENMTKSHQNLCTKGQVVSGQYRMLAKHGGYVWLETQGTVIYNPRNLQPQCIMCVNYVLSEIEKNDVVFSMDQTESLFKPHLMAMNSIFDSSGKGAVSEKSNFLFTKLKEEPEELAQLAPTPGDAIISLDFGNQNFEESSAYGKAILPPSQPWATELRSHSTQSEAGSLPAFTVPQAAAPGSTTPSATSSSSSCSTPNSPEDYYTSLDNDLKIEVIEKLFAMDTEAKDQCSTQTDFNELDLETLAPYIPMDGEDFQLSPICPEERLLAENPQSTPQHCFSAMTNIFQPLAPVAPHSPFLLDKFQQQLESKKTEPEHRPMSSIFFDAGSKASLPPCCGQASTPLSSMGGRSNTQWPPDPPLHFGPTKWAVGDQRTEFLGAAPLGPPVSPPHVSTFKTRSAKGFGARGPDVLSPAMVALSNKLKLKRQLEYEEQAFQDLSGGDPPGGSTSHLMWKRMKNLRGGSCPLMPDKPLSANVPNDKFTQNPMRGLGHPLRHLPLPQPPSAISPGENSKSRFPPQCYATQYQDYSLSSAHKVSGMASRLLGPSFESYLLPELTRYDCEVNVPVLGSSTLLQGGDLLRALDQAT
T4 sequence (Q92887 whole entry): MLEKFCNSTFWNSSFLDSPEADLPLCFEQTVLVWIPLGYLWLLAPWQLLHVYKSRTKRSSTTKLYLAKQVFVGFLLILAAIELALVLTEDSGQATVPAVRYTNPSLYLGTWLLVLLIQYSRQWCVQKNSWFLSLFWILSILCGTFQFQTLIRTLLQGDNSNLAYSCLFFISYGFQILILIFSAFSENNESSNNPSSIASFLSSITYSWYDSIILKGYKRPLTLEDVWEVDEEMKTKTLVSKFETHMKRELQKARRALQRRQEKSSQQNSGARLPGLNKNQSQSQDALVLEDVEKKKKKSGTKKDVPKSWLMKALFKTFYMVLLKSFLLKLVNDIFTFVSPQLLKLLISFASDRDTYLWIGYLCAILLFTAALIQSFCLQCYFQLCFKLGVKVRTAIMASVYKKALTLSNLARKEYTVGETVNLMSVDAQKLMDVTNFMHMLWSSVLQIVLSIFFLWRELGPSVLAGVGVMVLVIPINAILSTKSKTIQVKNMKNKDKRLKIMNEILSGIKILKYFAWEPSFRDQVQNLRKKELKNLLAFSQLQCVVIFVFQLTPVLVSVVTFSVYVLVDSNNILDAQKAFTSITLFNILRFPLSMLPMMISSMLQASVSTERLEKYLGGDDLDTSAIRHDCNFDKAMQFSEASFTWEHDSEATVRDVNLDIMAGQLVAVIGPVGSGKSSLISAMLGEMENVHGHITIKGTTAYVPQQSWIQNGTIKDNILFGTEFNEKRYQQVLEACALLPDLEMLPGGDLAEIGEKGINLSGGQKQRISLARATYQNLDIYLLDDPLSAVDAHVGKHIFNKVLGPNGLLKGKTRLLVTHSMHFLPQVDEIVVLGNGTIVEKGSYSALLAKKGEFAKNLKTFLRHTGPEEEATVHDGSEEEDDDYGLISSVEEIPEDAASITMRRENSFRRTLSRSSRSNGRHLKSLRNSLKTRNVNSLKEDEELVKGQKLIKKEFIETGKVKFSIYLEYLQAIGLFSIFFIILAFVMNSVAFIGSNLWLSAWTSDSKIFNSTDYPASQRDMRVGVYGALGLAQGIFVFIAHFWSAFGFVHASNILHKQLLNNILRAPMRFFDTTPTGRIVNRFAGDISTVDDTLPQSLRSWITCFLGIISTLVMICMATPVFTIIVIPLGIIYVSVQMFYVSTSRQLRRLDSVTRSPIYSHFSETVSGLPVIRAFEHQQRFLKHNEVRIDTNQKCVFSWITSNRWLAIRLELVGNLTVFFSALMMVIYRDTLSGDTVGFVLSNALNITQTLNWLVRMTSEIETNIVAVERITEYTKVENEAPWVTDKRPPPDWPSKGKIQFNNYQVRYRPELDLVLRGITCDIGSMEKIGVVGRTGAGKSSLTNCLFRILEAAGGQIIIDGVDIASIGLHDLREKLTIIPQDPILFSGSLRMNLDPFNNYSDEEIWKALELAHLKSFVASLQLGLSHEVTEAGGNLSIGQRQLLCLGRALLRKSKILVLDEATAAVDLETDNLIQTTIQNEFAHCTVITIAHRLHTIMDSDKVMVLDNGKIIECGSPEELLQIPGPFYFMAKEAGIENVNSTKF
Chain of P-gp (ABCB1) (P08183 whole entry): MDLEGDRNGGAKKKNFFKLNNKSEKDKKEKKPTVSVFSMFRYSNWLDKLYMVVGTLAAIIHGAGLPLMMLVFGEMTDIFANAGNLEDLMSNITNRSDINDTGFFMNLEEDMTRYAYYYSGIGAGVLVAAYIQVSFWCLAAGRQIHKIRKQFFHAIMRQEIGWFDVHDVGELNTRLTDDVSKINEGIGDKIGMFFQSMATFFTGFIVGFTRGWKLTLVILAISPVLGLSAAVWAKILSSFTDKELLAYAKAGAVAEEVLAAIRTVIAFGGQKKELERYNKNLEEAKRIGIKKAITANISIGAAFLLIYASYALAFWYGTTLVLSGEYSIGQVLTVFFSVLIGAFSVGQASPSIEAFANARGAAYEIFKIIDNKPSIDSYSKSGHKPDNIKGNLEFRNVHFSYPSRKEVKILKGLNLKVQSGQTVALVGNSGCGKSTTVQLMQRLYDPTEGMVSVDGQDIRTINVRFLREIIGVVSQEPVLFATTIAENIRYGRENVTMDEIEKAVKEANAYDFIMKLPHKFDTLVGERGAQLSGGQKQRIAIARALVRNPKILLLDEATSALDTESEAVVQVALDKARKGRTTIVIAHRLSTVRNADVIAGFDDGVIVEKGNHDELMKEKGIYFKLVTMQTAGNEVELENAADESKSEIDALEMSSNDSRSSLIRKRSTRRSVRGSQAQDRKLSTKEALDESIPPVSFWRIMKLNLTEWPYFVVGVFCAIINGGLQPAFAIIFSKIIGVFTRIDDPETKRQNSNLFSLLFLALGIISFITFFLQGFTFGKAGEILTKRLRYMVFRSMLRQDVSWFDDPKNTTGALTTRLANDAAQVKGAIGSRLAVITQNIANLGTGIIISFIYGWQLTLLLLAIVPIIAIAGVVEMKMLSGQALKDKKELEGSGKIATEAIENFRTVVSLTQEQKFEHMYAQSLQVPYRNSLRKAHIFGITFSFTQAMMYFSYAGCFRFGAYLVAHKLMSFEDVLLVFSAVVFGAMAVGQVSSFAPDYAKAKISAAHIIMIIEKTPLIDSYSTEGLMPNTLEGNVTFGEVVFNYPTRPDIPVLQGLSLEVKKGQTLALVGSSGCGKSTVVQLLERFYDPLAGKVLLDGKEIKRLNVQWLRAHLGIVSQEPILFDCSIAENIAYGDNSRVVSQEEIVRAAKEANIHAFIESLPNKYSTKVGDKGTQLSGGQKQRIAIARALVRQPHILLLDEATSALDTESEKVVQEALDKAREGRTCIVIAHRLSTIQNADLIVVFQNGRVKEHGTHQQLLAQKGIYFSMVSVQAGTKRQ
Chain of MRP2 (ABCC2) (Q92887 whole entry): as the sequence (Q92887 whole entry) above
Chain of UDP-glucuronosyltransferase 1A7 (Q9HAW7 whole entry): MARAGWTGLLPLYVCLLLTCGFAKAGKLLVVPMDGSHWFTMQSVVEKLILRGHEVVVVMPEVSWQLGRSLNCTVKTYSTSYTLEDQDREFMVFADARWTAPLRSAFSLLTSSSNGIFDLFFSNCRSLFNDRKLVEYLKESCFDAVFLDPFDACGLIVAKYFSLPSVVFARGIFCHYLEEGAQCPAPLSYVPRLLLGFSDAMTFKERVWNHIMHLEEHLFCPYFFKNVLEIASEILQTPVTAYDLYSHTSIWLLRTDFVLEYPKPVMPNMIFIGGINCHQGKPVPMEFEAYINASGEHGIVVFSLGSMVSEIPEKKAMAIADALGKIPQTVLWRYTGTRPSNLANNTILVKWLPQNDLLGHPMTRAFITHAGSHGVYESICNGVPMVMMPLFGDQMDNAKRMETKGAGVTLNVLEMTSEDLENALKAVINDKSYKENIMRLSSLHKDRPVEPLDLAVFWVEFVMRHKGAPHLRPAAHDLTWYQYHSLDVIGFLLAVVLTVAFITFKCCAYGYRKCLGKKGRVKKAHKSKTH

As to `CS(=O)(=O)c1ccc(Oc2cc(F)cc(C#N)c2)c2c1[C@H](O)[C@H](F)C2`, the maximal velocity (Vmax) (usually the top rate of the reaction or transport when substrate is in excess) in data set [1] amounted to 14 pmol/min; in data set [3] it was 2.1 pmol/min. Further, in [2], the Km (commonly the substrate concentration at which the rate is half of its maximum) at 1 h, 50 µM came to 15 µM. Further, in data set [4], the Km at 1 h, up to 1000 µM came out at 28 µM.

As for `CS(=O)(=O)c1ccc(Oc2cc(F)cc(C#N)c2)c2c1[C@H](O)[C@@H](F)C2`, the maximal velocity (Vmax) in data set [1] is 50 pmol/min; in [3], 11 pmol/min. In addition, the Km at 1 h, 50 µM in data set [2] amounted to 15 µM. In addition, the Km at 1 h, up to 1000 µM in data set [4] turned out to be 26 µM.

For `CS(=O)(=O)c1ccc(Oc2cc(F)cc(C#N)c2)c2c1[C@H](O)C(F)(F)C2`, the Drug metabolism entry in data set [5] is listed as “Metabolite_Detected”; in data set [8], “Metabolite_Detected”; in [10] it was “Metabolite_Notdetected”; in data set [11] it was “Metabolite_Notdetected”. Besides, the fraction unbound at 4 h, 10 µM was 0.18 in data set [6] and 0.29 in [12]. In addition, in data set [7], the pH-dependent lipophilicity (logD) – broadly, the decadic logarithm of the distribution of all forms, ionised or not, between an organic phase and buffer at a given pH – came to 2.2. In data set [9], the solubility thermodynamic was determined as 15 µg/mL (≈ 39.1 µM). Further, the Vmax was 280 pmol/min in data set [1] and 49 pmol/min in [3]. In data set [2], the Km at 1 h, 50 µM turned out to be 11 µM. Moreover, in data set [4], the Km at 1 h, up to 1000 µM stood at 20 µM. Also, the AUClast/dose amounted to 21 µM·h in [13], 5.1 µM·h in data set [14], 7.2 µM·h in [15] and 3.1 µM·h in [16]. In data set [17], the inhibition result was “Active”. Further, the figures for the concentration at 12 h in data set [18] and in [21] were 260 ng/mL and 860 ng/mL, respectively. The result in data set [19] was Active. Further, the “inhibition (INH)” value in data set [20] is listed as “Active”.

Take `CS(=O)(=O)c1ccc(Oc2cc(F)cc(C#N)c2)c2c1[C@H](O)C[C@H]2F`: the pIC50 (usually the negative decadic logarithm of the IC50, by convention in mol/L) in data set [22] was under 5.00.

Turning to `CS(=O)(=O)c1ccc(Oc2cc(F)cc(C#N)c2)c2c1[C@H](O)CC2`, the Vmax was 3.8 pmol/min in data set [1] and 0.8 pmol/min in data set [3]. In addition, in data set [2], the Michaelis constant (Km) at 1 h, 50 µM was 12 µM. Further, the Km at 1 h, up to 1000 µM in data set [4] amounted to 40 µM.

In data set [22], `CS(=O)(=O)c1ccc(Oc2cc(F)cc(C#N)c2)c2c1[C@H](O)C(F)(F)[C@@H]2F` showed a pIC50 of 8.05. Besides, the Vmax in data set [1] amounted to 440 pmol/min; in [3], 72 pmol/min. Further, the Michaelis constant (Km) at 1 h, 50 µM in data set [2] is 5.5 µM. For the same compound, the Michaelis constant (Km) at 1 h, up to 1000 µM in data set [4] came out at 15 µM. In addition, the negative logarithm of the EC50 (pEC50) (in general, the negative decadic logarithm of the EC50, by convention in mol/L) in data set [23] is 8.40.

In data set [22], `CS(=O)(=O)c1ccc(Oc2cc(F)cc(C#N)c2)c2c1[C@H](O)C[C@@H]2F` showed a pIC50 of 6.68. Besides, the maximum rate (Vmax) was determined as 1.4 pmol/min in [1] and 0.3 pmol/min in [3]. For the same compound, the Km at 1 h, 50 µM in data set [2] was found to be 12 µM. For the same compound, the Michaelis constant (Km) at 1 h, up to 1000 µM in data set [4] worked out at 130 µM. This compound gave a negative logarithm of the EC50 (pEC50) in [23] of 6.34.

In the case of `CS(=O)(=O)c1ccc(Oc2cc(F)cc(C#N)c2)c2c1[C@H](O[C@@H]1O[C@H](C(=O)O)[C@@H](O)[C@H](O)[C@H]1O)C(F)(F)C2`, the Drug metabolism entry in data set [24], in data set [25] and in data set [31] was “Metabolite_Detected” throughout. The efflux ratio in data set [26] and in data set [27] was under 2 each time. The Ratio in [28] was 32. Besides, in [29], the Vmax is 1230 pmol/min. In addition, the Michaelis constant (Km) in [30] was determined as 97 µM.

Source of the values: ChEMBL document CHEMBL4311943, “3-[(1S,2S,3R)-2,3-Difluoro-1-hydroxy-7-methylsulfonylindan-4-yl]oxy-5-fluorobenzonitrile (PT2977), a Hypoxia-Inducible Factor 2α (HIF-2α) Inhibitor for the Treatment of Clear Cell Renal Cell Carcinoma” (J Med Chem, 2019).
